According to ChEMBL document CHEMBL1764986, “Per-N-methylated analogues of an antitumor bicyclic hexapeptide RA-VII” (Bioorg Med Chem, 2011):

Tested on: P388
Assay: Cytotoxicity against mouse P388 cells
Type: functional, cell-based

| Structure (SMILES) | IC50 |
| --- | --- |
| COc1ccc(C[C@H]2C(=O)N(C)[C@@H](C)C(=O)N(C)[C@H]3Cc4ccc(cc4)Oc4cc(c(Br)cc4OC)C[C@@H](C(=O)N(C)[C@H](C)C(=O)N(C)[C@@H](C)C(=O)N2C)N(C)C3=O)cc1 | > 110 µM |
| COc1ccc(C[C@H]2C(=O)N(C)[C@@H](C)C(=O)N(C)[C@H]3Cc4ccc(cc4)Oc4cc(ccc4OC)C[C@@H](C(=O)N(C)[C@H](C)C(=O)N(N)[C@@H](C)C(=O)N2C)N(C)C3=O)cc1 | 49 µM |
| COc1ccc(C[C@H]2C(=O)N[C@@H](C)C(=O)N(C)[C@H]3Cc4ccc(cc4)Oc4cc(ccc4OC)C[C@@H](C(=O)N[C@H](C)C(=O)N[C@@H](C)C(=O)N2C)N(C)C3=O)cc1 | 0.0022 µM |
| COc1ccc(C[C@H]2C(=O)N[C@@H](C)C(=O)N(C)[C@H]3Cc4ccc(cc4)Oc4cc(ccc4OC)C[C@@H](C(=O)N[C@H](C)C(=O)N(N)[C@@H](C)C(=O)N2C)N(C)C3=O)cc1 | 0.0057 µM |
| COc1ccc(C[C@H]2C(=O)N(C)[C@@H](C)C(=O)N(C)[C@H]3Cc4ccc(cc4)Oc4cc(ccc4OC)C[C@@H](C(=O)N(C)[C@H](C)C(=O)N[C@@H](C)C(=O)N2C)N(C)C3=O)cc1 | 10 µM |
| COc1ccc(C[C@H]2C(=O)N(C)[C@@H](C)C(=O)N(C)[C@H]3Cc4ccc(cc4)Oc4cc(ccc4OC)C[C@@H](C(=O)N(C)[C@H](C)C(=O)N(C)[C@@H](C)C(=O)N2C)N(C)C3=O)cc1 | 3.1 µM |
